# Target: T1, human SLC6A19 and TMEM27 (Homo sapiens, UniProt Q695T7)
# T1 construct: expressed in transfected cells
# T1 sequence (Q695T7 1-634): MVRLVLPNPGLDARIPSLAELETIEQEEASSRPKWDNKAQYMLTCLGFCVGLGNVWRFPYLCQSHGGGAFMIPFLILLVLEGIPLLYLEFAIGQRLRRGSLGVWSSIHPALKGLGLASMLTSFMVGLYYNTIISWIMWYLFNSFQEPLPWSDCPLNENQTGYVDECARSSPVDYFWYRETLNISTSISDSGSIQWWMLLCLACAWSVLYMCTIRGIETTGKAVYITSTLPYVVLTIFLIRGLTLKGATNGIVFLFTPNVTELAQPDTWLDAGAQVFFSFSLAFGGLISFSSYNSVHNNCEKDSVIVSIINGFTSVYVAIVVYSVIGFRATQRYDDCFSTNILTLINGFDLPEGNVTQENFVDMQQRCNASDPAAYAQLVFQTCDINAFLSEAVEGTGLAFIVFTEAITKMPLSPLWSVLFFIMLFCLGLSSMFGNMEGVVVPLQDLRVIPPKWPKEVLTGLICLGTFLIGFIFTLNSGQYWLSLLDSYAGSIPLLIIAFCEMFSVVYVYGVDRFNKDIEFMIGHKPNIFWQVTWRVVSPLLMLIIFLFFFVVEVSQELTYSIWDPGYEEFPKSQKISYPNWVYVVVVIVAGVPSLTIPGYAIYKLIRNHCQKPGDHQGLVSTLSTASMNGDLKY
# T1 sequence (Q9HBJ8 15-222 partner): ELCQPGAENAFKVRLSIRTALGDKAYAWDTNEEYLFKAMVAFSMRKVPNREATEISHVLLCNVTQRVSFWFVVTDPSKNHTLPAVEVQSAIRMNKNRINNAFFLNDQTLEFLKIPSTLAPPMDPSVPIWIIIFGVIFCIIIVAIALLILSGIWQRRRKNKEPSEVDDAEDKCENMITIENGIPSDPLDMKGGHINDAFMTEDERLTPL
# Experiment: Radiolabelled (3H) leucine uptake in CHO cells with doxycycline-inducible expression of human SLC6A19 and TMEM27 (Example B-1)
# Type: cell-based
# Conditions: CHO cells with doxycycline-inducible expression of human SLC6A19 and TMEM27, read-out: SLC6A19_Radioligand Uptake Assay IC50
# Summary of the method: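 CHO cells were induced with doxycycline for 18 h at 37 °C, washed in HBSS, then exposed to compounds for 1 h: 8-point, 3-fold dilutions in duplicate, 0.5% DMSO final. Uptake measured by scintillation counting after 2 h shaking. Activity normalized with positive control as 0% and DMSO as 100%.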
row,IC50 [nM],SMILES
1,1020,"Cc1cc(COc2cc3[nH]c(CNC(=O)[C@H]4C[C@@H]5CC[C@H]4O5)cc3cc2Cl)on1 (racemic) [Compound 297, (1R,2S,4S)-N-((5-chloro-6-((3-methylisoxazol-5-yl)methoxy)-1H-indol-2-yl)methyl)-7-oxabicyclo[2.2.1]heptane-2-carboxamide and (1S,2R,4R)-N-((5-chloro-6-((3-methylisoxazol-5-yl)methoxy)-1H-indol-2-yl)methyl)-7-oxabicyclo[2.2.1]heptane-2-carboxamide]"
2,69,"CC(=O)NCc1cc2cc(Cl)c(OCc3cc(C)on3)cc2[nH]1 [Compound 142, N-((5-chloro-6-((5-methylisoxazol-3-yl)methoxy)-1H-indol-2-yl)methyl)acetamide]"
3,420,"C[C@H]1CCN(C(=O)NCc2cc3cc(F)c(OCc4ccon4)cc3[nH]2)C1 [Compound 382, (S)-N-((5-fluoro-6-(isoxazol-3-ylmethoxy)-1H-indol-2-yl)methyl)-3-methylpyrrolidine-1-carboxamide]"
4,156,"CC1(C(=O)NCc2cc3c(F)c(F)c(OCc4cscn4)cc3[nH]2)CC1 [Compound 526, N-((4,5-difluoro-6-(thiazol-4-ylmethoxy)-1H-indol-2-yl)methyl)-1-methylcyclopropane-1-carboxamide]"
5,382,"N#CCC(=O)NCc1cc2cc(Cl)c(OCc3cscn3)cc2[nH]1 [Compound 437, N-((5-chloro-6-(thiazol-4-ylmethoxy)-1H-indol-2-yl)methyl)-2-cyanoacetamide]"
6,1520,"CC1(C(=O)NCc2cc3cc(Cl)c(CCn4ccnn4)cc3[nH]2)CC1 [Compound 583, N-((6-(2-(1H-1,2,3-triazol-1-yl)ethyl)-5-chloro-1H-indol-2-yl)methyl)-1-methylcyclopropane-1-carboxamide]"
7,666,"CO[C@H](C)C(=O)NCc1cc2cc(Cl)c(OCc3cscn3)cc2[nH]1 [Compound 292, (R)-N-((5-chloro-6-(thiazol-4-ylmethoxy)-1H-indol-2-yl)methyl)-2-methoxypropanamide]"
8,145,"O=C(NCc1cc2cc(F)c(CCc3cscn3)cc2[nH]1)N1CCC1 [Compound 600, N-((5-fluoro-6-(2-(thiazol-4-yl)ethyl)-1H-indol-2-yl)methyl)azetidine-1-carboxamide]"
9,1960,"Cc1cc(CC(C)c2ccc3cc(CNC(=O)C4(C)CC4)[nH]c3c2)no1 (stereo not drawn) [Compound 153, 1-methyl-N-((6-(1-(5-methylisoxazol-3-yl)propan-2-yl)-1H-indol-2-yl)methyl) cyclopropane-1-carboxamide]"
10,> 9060,"COCCOCC(=O)NCc1cc2cc(Cl)c(OCc3cc(C)no3)cc2[nH]1 [Compound 299, N-((5-chloro-6-((3-methylisoxazol-5-yl)methoxy)-1H-indol-2-yl)methyl)-2-(2-methoxyethoxy)acetamide]"
11,179,"Cc1cc(COc2cc3[nH]c(CNC(=O)CC(F)F)cc3cc2F)on1 [Compound 518, 3,3-difluoro-N-((5-fluoro-6-((3-methylisoxazol-5-yl)methoxy)-1H-indol-2-yl)methyl)propanamide]"
12,1390,"Cc1cc(COc2cc3[nH]c(CNC(=O)[C@@H]4CCC[C@@H]4O)cc3cc2Cl)on1 (racemic) [Compound 573, (1R,2S)-N-((5-chloro-6-((3-methylisoxazol-5-yl)methoxy)-1H-indol-2-yl)methyl)-2-hydroxycyclopentane-1-carboxamide and (1S,2R)-N-((5-chloro-6-((3-methylisoxazol-5-yl)methoxy)-1H-indol-2-yl)methyl)-2-hydroxycyclopentane-1-carboxamide]"
13,718,"Cc1cc(COc2cc3[nH]c(CNC(=O)[C@H]4COCCO4)cc3cc2Cl)on1 [Compound 304, (R)-N-((5-chloro-6-((3-methylisoxazol-5-yl)methoxy)-1H-indol-2-yl)methyl)-1,4-dioxane-2-carboxamide]"
14,2120,"Cc1cc(COc2cc3[nH]c(CNC(=O)N4CCC4C#N)cc3cc2Cl)on1 (stereo not drawn) [Compound 376, N-((5-chloro-6-((3-methylisoxazol-5-yl)methoxy)-1H-indol-2-yl)methyl)-2-cyanoazetidine-1-carboxamide]"
15,182,"O=C(NCc1cc2cc(F)c(OCc3cscn3)cc2[nH]1)C(F)F [Compound 567, 2,2-difluoro-N-((5-fluoro-6-(thiazol-4-ylmethoxy)-1H-indol-2-yl)methyl)acetamide]"
16,3640,"CC(=O)NCc1cc2cc(Cl)c(OCC3COCCO3)cc2[nH]1 (stereo not drawn) [Compound 457, N-((6-((1,4-dioxan-2-yl)methoxy)-5-chloro-1H-indol-2-yl)methyl)acetamide]"
17,472,"Cc1cc(COc2cc3[nH]c(CNC(=O)N4CCC(F)C4)cc3cc2Cl)on1 (racemic) [Compound 373, (R)-N-((5-chloro-6-((3-methylisoxazol-5-yl)methoxy)-1H-indol-2-yl)methyl)-3-fluoropyrrolidine-1-carboxamide and (S)-N-((5-chloro-6-((3-methylisoxazol-5-yl)methoxy)-1H-indol-2-yl)methyl)-3-fluoropyrrolidine-1-carboxamide]"
18,1010,"CC(=O)NCc1cc2cc(Cl)c(OCCOCC(F)F)cc2[nH]1 [Compound 650, N-((5-chloro-6-(2-(2,2-difluoroethoxy)ethoxy)-1H-indol-2-yl)methyl)acetamide]"
19,628,"Cc1cc(COc2cc3[nH]c(CNC(=O)[C@H]4C[C@H](O)C4)cc3cc2Cl)on1 [Compound 252, (1R,3R)-N-((5-chloro-6-((3-methylisoxazol-5-yl)methoxy)-1H-indol-2-yl)methyl)-3-hydroxycyclobutane-1-carboxamide]"
20,328,"Cc1cc(COc2cc(F)c3cc(CNC(=O)C4(C)CC4)[nH]c3c2)on1 [Compound 339, N-((4-fluoro-6-((3-methylisoxazol-5-yl)methoxy)-1H-indol-2-yl)methyl)-1-methylcyclopropane-1-carboxamide]"
21,> 6440,"CC1(C(=O)NCc2cc3cc(Cl)c(OCc4cc5ccccc5[nH]4)cc3[nH]2)CC1 [Compound 607, N-((6-((1H-indol-2-yl)methoxy)-5-chloro-1H-indol-2-yl)methyl)-1-methylcyclopropane-1-carboxamide]"
22,230,"O=C(NCc1cc2cc(F)c(OCc3cocn3)cc2[nH]1)N1CCCC1 [Compound 115, N-((5-fluoro-6-(oxazol-4-ylmethoxy)-1H-indol-2-yl)methyl)pyrrolidine-1-carboxamide]"
23,2510,"CC1(C(=O)NCc2cc3ccc(OCc4ccc5ccoc5c4)cc3[nH]2)CC1 [Compound 192, N-((6-(benzofuran-6-ylmethoxy)-1H-indol-2-yl)methyl)-1-methylcyclopropane-1-carboxamide]"
24,421,"O=C(NCc1cc2cc(Cl)c(OCc3cscn3)cc2[nH]1)C1CCCO1 (stereo not drawn) [Compound 268, N-((5-chloro-6-(thiazol-4-ylmethoxy)-1H-indol-2-yl)methyl)tetrahydrofuran-2-carboxamide]"
25,108,"Cc1cc(COc2cc3[nH]c(CNC(=O)[C@@H]4C[C@H]4F)cc3cc2Cl)on1 [Compound 537, (1S,2R)-N-((5-chloro-6-((3-methylisoxazol-5-yl)methoxy)-1H-indol-2-yl)methyl)-2-fluorocyclopropane-1-carboxamide]"
26,599,"Cc1cc(COc2cc3[nH]c(CNC(=O)C4(C)CC4)cc3cc2Cl)sn1 [Compound 398, N-((5-chloro-6-((3-methylisothiazol-5-yl)methoxy)-1H-indol-2-yl)methyl)-1-methylcyclopropane-1-carboxamide]"
27,6730,"Cc1cc(COc2cc3[nH]c(CNC(=O)Cn4ccnn4)cc3cc2Cl)on1 [Compound 520, N-((5-chloro-6-((3-methylisoxazol-5-yl)methoxy)-1H-indol-2-yl)methyl)-2-(1H-1,2,3-triazol-1-yl)acetamide]"
28,64.2,"CC(F)C(=O)NCc1cc2cc(Cl)c(OCc3cscn3)cc2[nH]1 (single isomer, unassigned) [Compound 443, (S or R)-N-((5-chloro-6-(thiazol-4-ylmethoxy)-1H-indol-2-yl)methyl)-2-fluoropropanamide]"
29,676,"CC1(C(=O)NCc2cc3cc(Cl)c(OCCC4CCC4)cc3[nH]2)CC1 [Compound 394, N-((5-chloro-6-(2-cyclobutylethoxy)-1H-indol-2-yl)methyl)-1-methylcyclopropane-1-carboxamide]"
30,> 5550,"Cc1cc(COc2cc3[nH]c(CNC(=O)[C@H]4CCCN4C)cc3cc2Cl)on1 [Compound 578, (R)-N-((5-chloro-6-((3-methylisoxazol-5-yl)methoxy)-1H-indol-2-yl)methyl)-1-methylpyrrolidine-2-carboxamide]"
